Reference: paper PMC7794376 (Nature Communications, 2021)
Values after ≈ are worked out from the molar mass of the structure shown. Values joined by “and” are separate entries in the source; they are usually repeats but may differ in a detail not shown here. Identical values can stand only once. Like-named read-outs stand apart in the source and are kept apart here.

How the values were obtained:
[1] = test system: M. tuberculosis coaBC Tet-OFF conditional knockdown; type: cell-based, Mycobacterium tuberculosis; conditions: GAST/Fe minimal media
M. tuberculosis H37Rv = assay: MIC determination in different media; type: cell-based; conditions: Mycobacterium tuberculosis, read-out: Minimum inhibitory concentration (MIC)
MtbCoaBC [2] = target: T1, MtbCoaBC (Mycobacterium tuberculosis, UniProt P9WNZ1); assay: biochemical; type: biochemical; conditions: for activity at 0.015625 µM / activity at 0.03125 µM / activity at 0.0625 µM / activity at 0.25 µM / activity at 0.5 µM: relative to average DMSO CT; for Activity R1 / Activity R3: slope of absorbance at 360 nm vs time (s)
T1 sequence (P9WNZ1 whole entry): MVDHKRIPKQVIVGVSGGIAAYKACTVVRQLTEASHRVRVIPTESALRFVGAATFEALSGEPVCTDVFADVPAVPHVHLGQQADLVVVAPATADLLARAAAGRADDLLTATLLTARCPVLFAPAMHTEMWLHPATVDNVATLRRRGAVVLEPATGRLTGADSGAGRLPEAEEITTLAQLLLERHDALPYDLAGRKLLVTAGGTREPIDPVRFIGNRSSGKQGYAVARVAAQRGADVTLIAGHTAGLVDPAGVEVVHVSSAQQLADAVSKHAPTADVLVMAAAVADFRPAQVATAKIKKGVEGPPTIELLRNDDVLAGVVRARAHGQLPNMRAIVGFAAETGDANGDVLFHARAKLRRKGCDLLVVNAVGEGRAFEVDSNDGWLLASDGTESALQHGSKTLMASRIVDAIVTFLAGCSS

MtbCoaBC [3] = target: T1, MtbCoaBC; assay: Competition assays, first half of CoaB reaction (EnzChek, variable CTP or PPA); type: biochemical; conditions: for mode of inhibition: in words
MsmCoaBC = MsmCoaBC (Mycolicibacterium smegmatis, UniProt A0QWT2); assay: EnzChek pyrophosphate assay, CoaB activity of MsmCoaBC; type: biochemical, Mycobacterium smegmatis
Sequence of MsmCoaBC (A0QWT2 whole entry): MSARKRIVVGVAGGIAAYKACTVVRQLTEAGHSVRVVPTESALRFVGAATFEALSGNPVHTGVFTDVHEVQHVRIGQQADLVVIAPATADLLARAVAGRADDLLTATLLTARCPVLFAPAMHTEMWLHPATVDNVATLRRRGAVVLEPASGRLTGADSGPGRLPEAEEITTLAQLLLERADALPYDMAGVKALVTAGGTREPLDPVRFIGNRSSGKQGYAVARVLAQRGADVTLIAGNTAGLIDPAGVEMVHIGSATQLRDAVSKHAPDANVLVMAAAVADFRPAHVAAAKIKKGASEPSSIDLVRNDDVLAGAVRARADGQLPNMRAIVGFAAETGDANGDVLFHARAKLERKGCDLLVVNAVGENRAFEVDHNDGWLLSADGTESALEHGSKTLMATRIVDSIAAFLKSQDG
Description: The commercially available EnzChek pyrophosphate assay kit (E-6645) (Life Technologies) was used for this assay. […] In the assays with HCoaB an enzyme concentration of 1 µM was used instead. […] Assays were performed on either a CLARIOstar or PHERAstar microplate reader (BMG Labtech) in 96-well plates (Greiner). A substrate mixture containing the substrates and the inhibitor was pre-incubated at 25 °C for 10 min. An enzyme solution was prepared and separately pre-incubated at 25 °C for 10 min. The reaction was initiated by the addition of the substrates to the solution containing the enzyme to a final volume of 75 µL. Enzymatic activity was monitored by following the absorbance at 360 nm for 30 min (100 cycles/20 s each cycle) and only the steady-state region of the assay was used for data analysis. Assays were performed in triplicates, including a negative control (lacking PPA) and a positive control (lacking inhibitor).

[4] = inhibitor concentration 1 (log 0), unit not shown, three replicates
[5] = inhibitor concentration 2 (log 0.30103), unit not shown, three replicates
[6] = 0.015625 uM 2b, relative to average DMSO CT, replicates R1-R3

**Q.** Which “sensitisation on incremental silencing of CoaBC” value [1] does the source give for O=c1cc(-c2ccc(O)c(O)c2)oc2cc(O)c(O)cc12 [compound 2b] here?
**A.** Its value is “did not sensitise M. tuberculosis further”.

**Q.** What about the MIC (M. tuberculosis H37Rv; 7H9/ADC/Glycerol) of the same compound?
**A.** Its MIC is > 250 µM.

**Q.** And the MIC (M. tuberculosis H37Rv; 7H9/Cholesterol/Tyloxapol)?
**A.** The MIC was > 250 µM.

**Q.** What about the MIC (M. tuberculosis H37Rv; GAST/Fe) of the same compound?
**A.** The MIC was 50 µM (≈ 14.3 µg/mL).

**Q.** What about the inhibition at 0.015625 µM (MtbCoaBC [2]; 0.015625 uM 2b, replicate R1, read-out: Inhibition % R1) of the same compound?
**A.** Its inhibition at 0.015625 µM is 8.08%.

**Q.** And the activity at 0.015625 µM (MtbCoaBC [2]; 0.015625 uM 2b, replicate R1, read-out: Activity % R1)?
**A.** The activity at 0.015625 µM was 91.9%.

**Q.** What about the “Activity R1” value (MtbCoaBC [2]; 0.015625 uM 2b, replicate R1) of the same compound?
**A.** The value was 0.0001714.

**Q.** And the inhibition at 0.015625 µM (MtbCoaBC [2]; 0.015625 uM 2b, replicate R2, read-out: Inhibition % R2)?
**A.** The inhibition at 0.015625 µM was 5.01%.

**Q.** What about the activity at 0.015625 µM (MtbCoaBC [2]; 0.015625 uM 2b, replicate R2, read-out: Activity % R2) of the same compound?
**A.** The activity at 0.015625 µM was 95%.

**Q.** What about the inhibition at 0.015625 µM (MtbCoaBC [2]; 0.015625 uM 2b, replicate R3, read-out: Inhibition % R3) of the same compound?
**A.** Its inhibition at 0.015625 µM is 10.3%.

**Q.** And the activity at 0.015625 µM (MtbCoaBC [2]; 0.015625 uM 2b, replicate R3, read-out: Activity % R3)?
**A.** Its activity at 0.015625 µM is 89.7%.

**Q.** What about the “Activity R3” value (MtbCoaBC [2]; 0.015625 uM 2b, replicate R3) of the same compound?
**A.** Its value is 0.0001672.

**Q.** What about the inhibition at 0.03125 µM (MtbCoaBC [2]; 0.03125 uM 2b, replicate R1, read-out: Inhibition % R1) of the same compound?
**A.** The inhibition at 0.03125 µM was 20.2%.

**Q.** And the activity at 0.03125 µM (MtbCoaBC [2]; 0.03125 uM 2b, replicate R1, read-out: Activity % R1)?
**A.** The activity at 0.03125 µM was 79.8%.

**Q.** What about the “Activity R1” value (MtbCoaBC [2]; 0.03125 uM 2b, replicate R1) of the same compound?
**A.** The value was 0.0001487.

**Q.** And the inhibition at 0.03125 µM (MtbCoaBC [2]; 0.03125 uM 2b, replicate R2, read-out: Inhibition % R2)?
**A.** Its inhibition at 0.03125 µM is 19.2%.

**Q.** What about the activity at 0.03125 µM (MtbCoaBC [2]; 0.03125 uM 2b, replicate R2, read-out: Activity % R2) of the same compound?
**A.** Its activity at 0.03125 µM is 80.8%.

**Q.** What about the inhibition at 0.03125 µM (MtbCoaBC [2]; 0.03125 uM 2b, replicate R3, read-out: Inhibition % R3) of the same compound?
**A.** The inhibition at 0.03125 µM was 19.4%.

**Q.** And the activity at 0.03125 µM (MtbCoaBC [2]; 0.03125 uM 2b, replicate R3, read-out: Activity % R3)?
**A.** Its activity at 0.03125 µM is 80.6%.

**Q.** What about the “Activity R3” value (MtbCoaBC [2]; 0.03125 uM 2b, replicate R3) of the same compound?
**A.** The value was 0.0001503.

**Q.** And the inhibition at 0.0625 µM (MtbCoaBC [2]; 0.0625 uM 2b, replicate R1, read-out: Inhibition % R1)?
**A.** Its inhibition at 0.0625 µM is 37.9%.

**Q.** And the activity at 0.0625 µM (MtbCoaBC [2]; 0.0625 uM 2b, replicate R1, read-out: Activity % R1)?
**A.** The activity at 0.0625 µM was 62.1%.

**Q.** What about the “Activity R1” value (MtbCoaBC [2]; 0.0625 uM 2b, replicate R1) of the same compound?
**A.** The value was 0.0001157.

**Q.** And the inhibition at 0.0625 µM (MtbCoaBC [2]; 0.0625 uM 2b, replicate R2, read-out: Inhibition % R2)?
**A.** The inhibition at 0.0625 µM was 38.9%.

**Q.** And the activity at 0.0625 µM (MtbCoaBC [2]; 0.0625 uM 2b, replicate R2, read-out: Activity % R2)?
**A.** The activity at 0.0625 µM was 61.2%.

**Q.** What about the inhibition at 0.0625 µM (MtbCoaBC [2]; 0.0625 uM 2b, replicate R3, read-out: Inhibition % R3) of the same compound?
**A.** The inhibition at 0.0625 µM was 38%.

**Q.** And the activity at 0.0625 µM (MtbCoaBC [2]; 0.0625 uM 2b, replicate R3, read-out: Activity % R3)?
**A.** The activity at 0.0625 µM was 62%.

**Q.** What about the “Activity R3” value (MtbCoaBC [2]; 0.0625 uM 2b, replicate R3) of the same compound?
**A.** Its value is 0.0001157.

**Q.** And the inhibition at 0.25 µM (MtbCoaBC [2]; 0.25 uM 2b, replicate R1, read-out: Inhibition % R1)?
**A.** The inhibition at 0.25 µM was 95%.

**Q.** What about the activity at 0.25 µM (MtbCoaBC [2]; 0.25 uM 2b, replicate R1, read-out: Activity % R1) of the same compound?
**A.** Its activity at 0.25 µM is 4.96%.

**Q.** And the “Activity R1” value (MtbCoaBC [2]; 0.25 uM 2b, replicate R1)?
**A.** Its value is 0.000009249.

**Q.** What about the activity at 0.25 µM (MtbCoaBC [2]; 0.25 uM 2b, replicate R2, read-out: Activity % R2) of the same compound?
**A.** The activity at 0.25 µM was 4.35%.

**Q.** What about the inhibition at 0.25 µM (MtbCoaBC [2]; 0.25 uM 2b, replicate R3, read-out: Inhibition % R3) of the same compound?
**A.** The inhibition at 0.25 µM was 95.6%.

**Q.** What about the activity at 0.25 µM (MtbCoaBC [2]; 0.25 uM 2b, replicate R3, read-out: Activity % R3) of the same compound?
**A.** The activity at 0.25 µM was 4.39%.

**Q.** And the “Activity R3” value (MtbCoaBC [2]; 0.25 uM 2b, replicate R3)?
**A.** Its value is 0.000008176.

**Q.** What about the inhibition at 0.5 µM (MtbCoaBC [2]; 0.5 uM 2b, replicate R1, read-out: Inhibition % R1) of the same compound?
**A.** Its inhibition at 0.5 µM is 97.8%.

**Q.** What about the activity at 0.5 µM (MtbCoaBC [2]; 0.5 uM 2b, replicate R1, read-out: Activity % R1) of the same compound?
**A.** The activity at 0.5 µM was 2.19%.

**Q.** What about the “Activity R1” value (MtbCoaBC [2]; 0.5 uM 2b, replicate R1) of the same compound?
**A.** Its value is 0.000004090.

**Q.** And the inhibition at 0.5 µM (MtbCoaBC [2]; 0.5 uM 2b, replicate R2, read-out: Inhibition % R2)?
**A.** Its inhibition at 0.5 µM is 99%.

**Q.** And the activity at 0.5 µM (MtbCoaBC [2]; 0.5 uM 2b, replicate R2, read-out: Activity % R2)?
**A.** Its activity at 0.5 µM is 1%.

**Q.** What about the inhibition at 0.5 µM (MtbCoaBC [2]; 0.5 uM 2b, replicate R3, read-out: Inhibition % R3) of the same compound?
**A.** Its inhibition at 0.5 µM is 97%.

**Q.** And the activity at 0.5 µM (MtbCoaBC [2]; 0.5 uM 2b, replicate R3, read-out: Activity % R3)?
**A.** The activity at 0.5 µM was 3%.

**Q.** And the “Activity R3” value (MtbCoaBC [2]; 0.5 uM 2b, replicate R3)?
**A.** Its value is 0.000005588.

**Q.** And the “inhibition, IC50 MtbCoaBC 2b” value (MtbCoaBC [2]; [4])?
**A.** The value was 99.01.

**Q.** And the “reaction rate (slope of absorbance at 360 nm vs time), IC50 MtbCoaBC 2b” value (MtbCoaBC [2]; [4])?
**A.** The value was 0.000001846 and 0.000001860 and -0.000003443.

**Q.** And the “remaining activity relative to control, IC50 MtbCoaBC 2b” value (MtbCoaBC [2]; [4])?
**A.** The value was 0.9903 and 0.9976 and -1.847.

**Q.** And the “reaction rate (slope of absorbance at 360 nm vs time), IC50 MtbCoaBC 2b” value (MtbCoaBC [2]; [5])?
**A.** Its value is -0.000001738 and -0.000001919 and -0.000000593.

**Q.** And the “remaining activity relative to control, IC50 MtbCoaBC 2b” value (MtbCoaBC [2]; [5])?
**A.** Its value is -0.932 and -1.029 and -0.318.

**Q.** What about the IC50 (MtbCoaBC [2]; read-out: IC50 EnzChek MtbCoaBC) of the same compound?
**A.** The IC50 was 80 ± 10 nM.

**Q.** And the inhibition at 0.25 µM (MtbCoaBC [2]; read-out: Inhibition % R2)?
**A.** Its inhibition at 0.25 µM is 95.7%.

**Q.** What about the mode of inhibition (MtbCoaBC [3]; relative to CTP) of the same compound?
**A.** Its mode of inhibition is “mixed inhibition”.

**Q.** What about the mode of inhibition (MtbCoaBC [3]; relative to PPA) of the same compound?
**A.** The mode of inhibition was “uncompetitive inhibition”.

**Q.** And the Inibition type (MtbCoaBC [3]; variable substrate CTP)?
**A.** Its Inibition type is “Mixed”.

**Q.** What about the Ki (MtbCoaBC [3]; variable substrate CTP) of the same compound?
**A.** Its Ki is 93 ± 18 nM.

**Q.** And the IC50 (MsmCoaBC)?
**A.** Its IC50 is 180 ± 20 nM.

**Q.** And the Activity % (MsmCoaBC; [6])?
**A.** The Activity % was 94.35% and 94.28%.

**Q.** And the activity at 0.015625 µM (MsmCoaBC; [6])?
**A.** The activity at 0.015625 µM was 95.3%.
